From US20230105212A1, “BIPHENYL DERIVATIVE INHIBITOR, PREPARATION METHOD THEREFOR AND USE THEREOF” (SHANGHAI HANSOH BIOMEDICAL CO., LTD., priority 2020, published 2023)

What was measured:
[1] = Pharmacokinetics test in Balb/C mice; assay type: in vivo; settings: male, mouse, po, p.o. 5 mg/kg, plasma; for MRT inf: read-out: Average residence time MRT0−∞; for AUC(0-t): read-out: Curve area AUC0−t; for Cmax: read-out: Drug concentration in plasma Cmax; for half-life: read-out: Half life t1/2 (converted); for Tmax: read-out: Peak time tmax
Description: Test Embodiment 6. Pharmacokinetics Test in Balb/C Mice
Taking Balb/C mice as the test animals, the pharmacokinetic behavior in the plasma of mice of the following compound embodiments was studied when orally administered at a dose of 5 mg/kg.
Balb/C Mouse 6/embodiment, male, Shanghai Jisijie Laboratory Animal Co., Ltd., animal production license number (SCXK (Shanghai) 2013-0006 No. 311620400001794).
0.5% HPMC (1% Tween 80), dissolved by sonication, to prepare a clear solution or a homogeneous suspension.
Balb/C mice, male; p.o. after overnight fasting, respectively, at a dose of 5 mg/kg, administered in a volume of 10 mL/kg.
Before and after administration of mice, at 0, 0.5, 1, 2, 4, 6, 8 and 24 hours, 0.1 mL of blood was collected from the orbit, placed in an EDTA-K2 test tube, and centrifuged at 6000 rpm at 4° C. for 6 min to separate the plasma, stored at −80° C.
1) 40 μL of plasma samples were added to 160 μL of acetonitrile for precipitation, mixed and centrifuged at 3500×g for 5 to 20 minutes.
2) 100 μL of the supernatant solution after treatment was taken for LC/MS/MS to analyze the concentration of the compounds to be tested.
2.6 Liquid Phase Analysis • Liquid phase condition: Shimadzu LC-20AD pump • MS conditions: AB Sciex API 4000 Mass Spectrometer • Chromatographic column: phenomenex Gemiu 5 μm C18 50×4.6 mm • Mobile phase: A solution was aqueous 0.1% formic acid solution, B solution was acetonitrile • Flow rate: 0.8 mL/min • Elution time: 0 to 4.0 minutes, the eluent was as follows:
The main parameters of pharmacokinetics were calculated with WinNonlin 8.2, and the results of the mice pharmacokinetic experiments were shown in the following table: […]

[2] = system: CHO-PDL1/Jurkat-PD1 cell pathway; assay: Inhibition of CHO-PDL1/Jurkat-PD1 cell pathway (NFAT luciferase reporter); assay type: cell-based; settings: for EC50: 6 hours incubation, luciferase signal; for maximal fold induction: relative to the signal value of the non-dosed group, read-out: Maximum induction fold
Summary of the method: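 CHO-K1 cells stably expressing PD-L1, plated overnight, then co-cultured with PD-1/NFAT-luc2 Jurkat cells plus compounds in RPMI 1640 with 2% FBS for 6 h at 37 °C. Luminescence read after One-Glo, 10 min at RT. EC50 fitted from the concentration–signal curve; maximum induction fold calculated relative to the non-dosed group.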

[3] = biological target: T1, PD-L1 protein on the surface of MC38-hPDL1 tumor cells (Homo sapiens, UniProt Q9NZQ7); assay: Induction of endocytosis of PD-L1 on the surface of tumor cells (flow cytometry); assay type: cell-based; settings: 16 hours incubation; for Emax: MC38-hPDL1 cells, read-out: MC38 maximum endocytosis rate; for IC50: inducing endocytosis of PD-L1, MC38-hPDL1 cells, read-out: MC38 IC50
T1 construct: expressed in transfected cells; host or cells: MC38-hPDL1 (mouse colon cancer cells)
Summary of the method: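 IC50 comes from nonlinear fits of endocytosis rate, calculated from the loss of surface PE-anti-CD274 flow signal relative to vehicle. Cells were MC38 mouse colon cancer cells engineered to express high human PD-L1. Compound exposure lasted 16 h at 37 °C, 5% CO2.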

T1 sequence (Q9NZQ7 19-290): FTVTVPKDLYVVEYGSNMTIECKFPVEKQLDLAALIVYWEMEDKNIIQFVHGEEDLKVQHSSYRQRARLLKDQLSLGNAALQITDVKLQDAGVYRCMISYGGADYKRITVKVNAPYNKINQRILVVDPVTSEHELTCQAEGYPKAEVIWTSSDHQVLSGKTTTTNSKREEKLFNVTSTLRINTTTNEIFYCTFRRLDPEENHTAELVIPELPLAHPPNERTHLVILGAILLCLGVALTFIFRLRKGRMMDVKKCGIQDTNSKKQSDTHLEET

SMILES | MRT inf [1] [h] | AUC(0-t) [1] [ng·h/mL] | Cmax [1] [ng/mL] | half-life [1] [h] | Tmax [1] [h] | EC50 [2] [nM] | maximal fold induction [2] | Emax [3] [%] | IC50 [3] [nM]
COc1nc(-c2cccc(-c3cccc(NC(=O)c4nc5c(n4C)CCN(C)C5)c3Cl)c2Cl)ccc1CN1CC2(CCC(=O)N2)C1 [Embodiment 126, N-(2,2′-Dichloro-3′-(6-methoxy-5-((6-carbonyl-2,5-diazaspiro[3.4]octan-2-yl)methyl)pyridin-2-yl)-[1,1′-biphenyl]-3-yl)-1,5-dimethyl-4,5,6,7-tetrahydro-1H-imidazo[4,5-c]pyridine-2-carboxamide] | 12.3 | 677 | 54 | 8.4 | 2 | 94 | 3.5 | 97 | 1
COc1nc(-c2cccc(-c3cccc(NC(=O)c4nc5c(n4C)CCN(C)C5)c3Cl)c2Cl)cnc1CN1CC2(C1)CN(C(C)=O)C2 [Embodiment 152, N-(3′-(5-((6-Acetyl-2,6-diazaspiro[3.3]heptan-2-yl)methyl)-6-methoxypyrazin-2-yl)-2,2′-dichloro-[1,1′-biphenyl]-3-yl)-1,5-dimethyl-4,5,6,7-tetrahydro-1H-imidazo[4,5-c]pyridine-2-carboxamide] | 10 | 1140 | 93 |  | 8 | 66 | 3.4 | 97 | 0.6
COc1nc(-c2cccc(-c3cccc(NC(=O)c4nc5c(n4C)CCN(C)C5)c3Cl)c2Cl)ccc1CN1CC(NC(C)=O)C1 [Embodiment 180, N-(3′-(5-((3-Acetylaminoazetidin-1-yl)methyl)-6-methoxypyridin-2-yl)-2,2′-dichloro-[1,1′-biphenyl]-3-yl)-1,5-dimethyl-4,5,6,7-tetrahydro-1H-imidazo[4,5-c]pyridine-2-carboxamide] | 12.9 | 887 | 116 | 9.5 | 2 | 47 | 3.1 | 96 | 0.6
COc1nc(-c2cccc(-c3cccc(NC(=O)c4nc5c(n4C)CCN(C)C5)c3Cl)c2Cl)ccc1CN1CC2(C1)CN(C(=O)C(C)C)C2 [Embodiment 186, N-(2,2′-Dichloro-3′-(5-((6-isobutyryl-2,6-diazaspiro[3.3]heptan-2-yl)methyl)-6-methoxypyridin-2-yl)-[1,1′-biphenyl]-3-yl)-1,5-dimethyl-4,5,6,7-tetrahydro-1H-imidazo[4,5-c]pyridine-2-carboxamide] | 22.5 | 537 | 31 | 15.2 | 2 | 61 | 3 | 96 | 0.7
COc1nc(-c2cccc(-c3cccc(NC(=O)c4nc5c(n4C)CCN(C)C5)c3Cl)c2Cl)ncc1CN1CC(CO)C1 [Embodiment 223, N-(2,2′-Dichloro-3′-(5-((3-(hydroxymethyl)azetidin-1-yl)methyl)-4-methoxypyrimidin-2-yl)-[1,1′-biphenyl]-3-yl)-1,5-dimethyl-4,5,6,7-tetrahydro-1H-imidazo[4,5-c]pyridine-2-carboxamide] | 16 | 356 | 24 | 10.5 | 1 | 73 | 3.3 | 94 | 
COc1nc(-c2cccc(-c3cccc(NC(=O)c4nc5c(n4C)CCN(C)C5)c3Cl)c2Cl)ccc1CN1CC2(CC(NC(C)=O)C2)C1 [Embodiment 234, N-(3′-(5-((6-Acetylamino-2-azaspiro[3.3]heptan-2-yl)methyl)-6-methoxypyridin-2-yl)-2,2′-dichloro-[1,1′-biphenyl]-3-yl)-1,5-dimethyl-4,5,6,7-tetrahydro-1H-imidazo[4,5-c]pyridine-2-carboxamide] | 20.8 | 273 | 25 | 14.3 | 2 | 78 | 4.7 | 97 | 
